Experimental data reported in paper PMC5218480 (PLoS ONE, 2017).

Tested on: MV-4-11 cells
Assay: Gene expression microarray analysis (Affymetrix PrimeView) and GSEA
Assay type: cell-based, human
Parameters: RFU PODN (11730768_x_at) / Fold change /veh PODN (11730768_x_at) / RFU LINC00158 (11744669_a_at) / Fold change /veh LINC00158 (11744669_a_at) / RFU DUSP10 (11751237_a_at) / Fold change /veh DUSP10 (11751237_a_at) / RFU ID3 (11757404_x_at) / Fold change /veh ID3 (11757404_x_at) / RFU PLEKHG5 (11737974_s_at) / Fold change /veh PLEKHG5 (11737974_s_at) / RFU LRRC4B (11730491_at) / Fold change /veh LRRC4B (11730491_at) / RFU GIMAP4 (11747438_a_at) / Fold change /veh GIMAP4 (11747438_a_at) / RFU KRT8 (11758183_x_at) / Fold change /veh KRT8 (11758183_x_at) / RFU CNN1 (11734310_a_at) / Fold change /veh CNN1 (11734310_a_at) / RFU VPS37D (11726825_at) / Fold change /veh VPS37D (11726825_at) / RFU C10orf10 (11716522_x_at) / Fold change /veh C10orf10 (11716522_x_at) / RFU KIR2DL2 /// KIR2DL4 /// KIR2DL5A /// KIR2DL5B /// KIR2DS1 /// KIR2DS2 /// KIR2DS3 /// KIR2DS4 /// KIR3DL3 /// KIR3DL3 /// KIR3DS1 (11738374_at) / Fold change /veh KIR2DL2 /// KIR2DL4 /// KIR2DL5A /// KIR2DL5B /// KIR2DS1 /// KIR2DS2 /// KIR2DS3 /// KIR2DS4 /// KIR3DL3 /// KIR3DL3 /// KIR3DS1 (11738374_at) / RFU C1QL1 (11718748_at) / Fold change /veh C1QL1 (11718748_at) / RFU TMPRSS4 (11747572_a_at) / Fold change /veh TMPRSS4 (11747572_a_at) / RFU HAMP (11756126_x_at) / Fold change /veh HAMP (11756126_x_at) / RFU RNFT2 (11725882_a_at) / Fold change /veh RNFT2 (11725882_a_at) / RFU NR4A2 (11747474_a_at) / Fold change /veh NR4A2 (11747474_a_at) / RFU ABCC12 (11746883_a_at) / Fold change /veh ABCC12 (11746883_a_at) / RFU TMEM136 (11760407_x_at) / Fold change /veh TMEM136 (11760407_x_at) / RFU CLDN22 /// WWC2 (11732394_at) / Fold change /veh CLDN22 /// WWC2 (11732394_at) / RFU HLA-DPB1 (11760878_x_at) / Fold change /veh HLA-DPB1 (11760878_x_at) / RFU SPINT1 (11716480_a_at) / Fold change /veh SPINT1 (11716480_a_at) / RFU GAP43 (11754022_s_at) / Fold change /veh GAP43 (11754022_s_at) / RFU A4GNT (11735810_at) / Fold change /veh A4GNT (11735810_at) / RFU PRB3 (11715151_x_at) / Fold change /veh PRB3 (11715151_x_at) / RFU TUBB4B (11761932_at) / Fold change /veh TUBB4B (11761932_at) / RFU CAPN14 (11732068_a_at) / Fold change /veh CAPN14 (11732068_a_at) / RFU TMCC2 (11721928_a_at) / Fold change /veh TMCC2 (11721928_a_at) / RFU IRGQ (11745062_a_at) / Fold change /veh IRGQ (11745062_a_at) / RFU FAM174B (11720279_a_at) / Fold change /veh FAM174B (11720279_a_at) / RFU TMPRSS4 (11748680_a_at) / Fold change /veh TMPRSS4 (11748680_a_at) / RFU FAM212B (11763350_a_at) / Fold change /veh FAM212B (11763350_a_at) / RFU PLEKHG5 (11743358_a_at) / Fold change /veh PLEKHG5 (11743358_a_at) / RFU ZSCAN30 (11745921_a_at) / Fold change /veh ZSCAN30 (11745921_a_at) / RFU CMKLR1 (11741424_a_at) / Fold change /veh CMKLR1 (11741424_a_at) / RFU LOC101060620 /// MAPK8IP1 (11723275_at) / Fold change /veh LOC101060620 /// MAPK8IP1 (11723275_at) / RFU SPTSSB (11747773_x_at) / Fold change /veh SPTSSB (11747773_x_at) / RFU PRSS12 (11739890_at) / Fold change /veh PRSS12 (11739890_at) / RFU BIN1 (11741810_x_at) / Fold change /veh BIN1 (11741810_x_at) / RFU WNT11 (11732464_a_at) / Fold change /veh WNT11 (11732464_a_at) / RFU C10orf10 (11716521_a_at) / Fold change /veh C10orf10 (11716521_a_at) / RFU C5orf56 (11738089_at) / Fold change /veh C5orf56 (11738089_at) / RFU CYB561 (11721691_x_at) / Fold change /veh CYB561 (11721691_x_at) / RFU ANKRD19P (11752326_a_at) / Fold change /veh ANKRD19P (11752326_a_at) / RFU OR2T12 /// OR2T33 /// OR2T8 (11738714_s_at) / Fold change /veh OR2T12 /// OR2T33 /// OR2T8 (11738714_s_at) / RFU VCAN (11748164_a_at) / Fold change /veh VCAN (11748164_a_at) / RFU JSRP1 (11732532_at) / Fold change /veh JSRP1 (11732532_at) / RFU KRTAP10-11 (11738290_x_at) / Fold change /veh KRTAP10-11 (11738290_x_at) / RFU MYO3A (11730013_a_at) / Fold change /veh MYO3A (11730013_a_at) / RFU EBF3 (11725865_a_at) / Fold change /veh EBF3 (11725865_a_at) / RFU CAMK2N1 (11719241_x_at) / Fold change /veh CAMK2N1 (11719241_x_at) / RFU C5orf56 (11738088_a_at) / Fold change /veh C5orf56 (11738088_a_at) / RFU OLFML3 (11715873_a_at) / Fold change /veh OLFML3 (11715873_a_at) / RFU LOC100653217 /// NTM (11731650_a_at) / Fold change /veh LOC100653217 /// NTM (11731650_a_at) / RFU MAPK11 (11762145_a_at) / Fold change /veh MAPK11 (11762145_a_at) / RFU FIZ1 (11724087_x_at) / Fold change /veh FIZ1 (11724087_x_at) / RFU OASL (11726364_x_at) / Fold change /veh OASL (11726364_x_at) / RFU SOX15 (11748057_x_at) / Fold change /veh SOX15 (11748057_x_at) / RFU CD79A (11719716_a_at) / Fold change /veh CD79A (11719716_a_at) / RFU HIST1H1D (11736915_at) / Fold change /veh HIST1H1D (11736915_at) / RFU CASKIN2 (11723855_a_at) / Fold change /veh CASKIN2 (11723855_a_at) / RFU LOC730098 (11760151_x_at) / Fold change /veh LOC730098 (11760151_x_at) / RFU OR4N2 (11742367_at) / Fold change /veh OR4N2 (11742367_at) / RFU PRRT2 (11749266_a_at) / Fold change /veh PRRT2 (11749266_a_at) / RFU SNX32 (11753110_a_at) / Fold change /veh SNX32 (11753110_a_at) / RFU CDHR5 (11726645_a_at) / Fold change /veh CDHR5 (11726645_a_at) / RFU RCAN1 (11760418_a_at) / Fold change /veh RCAN1 (11760418_a_at) / RFU FAM167A (11723789_a_at) / Fold change /veh FAM167A (11723789_a_at) / RFU FAM26E (11764081_at) / Fold change /veh FAM26E (11764081_at) / RFU ISYNA1 (11749810_s_at) / Fold change /veh ISYNA1 (11749810_s_at) / RFU ACY1 (11761880_at) / Fold change /veh ACY1 (11761880_at) / RFU 11764098_at / Fold change /veh 11764098_at / RFU SAMD14 (11745864_x_at) / Fold change /veh SAMD14 (11745864_x_at) / RFU NPB (11741838_a_at) / Fold change /veh NPB (11741838_a_at) / RFU TMPRSS6 (11731388_a_at) / Fold change /veh TMPRSS6 (11731388_a_at) / RFU KRTAP10-2 (11738614_at) / Fold change /veh KRTAP10-2 (11738614_at) / RFU ARHGAP8 /// PRR5-ARHGAP8 (11727945_x_at) / Fold change /veh ARHGAP8 /// PRR5-ARHGAP8 (11727945_x_at) / RFU KRTAP5-7 /// NADSYN1 (11734609_at) / Fold change /veh KRTAP5-7 /// NADSYN1 (11734609_at) / RFU RASL12 (11751679_a_at) / Fold change /veh RASL12 (11751679_a_at) / RFU CDKN2B (11736163_a_at) / Fold change /veh CDKN2B (11736163_a_at) / RFU PRF1 (11729649_at) / Fold change /veh PRF1 (11729649_at) / RFU, ZNF638 /// ZNF638-IT1 / Fold change vs veh, ZNF638 /// ZNF638-IT1 / RFU, PANK3 / Fold change vs veh, PANK3 / RFU, SH3YL1 / Fold change vs veh, SH3YL1 / RFU, ZEB2 / Fold change vs veh, ZEB2 / RFU, NRIP1 / Fold change vs veh, NRIP1 / RFU, PTTG1IP / Fold change vs veh, PTTG1IP / RFU, CAPN2 / Fold change vs veh, CAPN2 / RFU, MED14 / Fold change vs veh, MED14 / RFU, SNORA58 / Fold change vs veh, SNORA58 / RFU, C1orf63 / Fold change vs veh, C1orf63 / RFU, LRRFIP1 / Fold change vs veh, LRRFIP1 / RFU, NDUFAF7 / Fold change vs veh, NDUFAF7 / RFU, SLC12A2 / Fold change vs veh, SLC12A2 / RFU, IBTK / Fold change vs veh, IBTK / RFU, ESF1 / Fold change vs veh, ESF1 / Fold change vs veh, TMEM50B / RFU, TAOK1 / Fold change vs veh, TAOK1 / RFU, ACBD3 / Fold change vs veh, ACBD3 / RFU, TMA16 / Fold change vs veh, TMA16 / RFU, RWDD3 / Fold change vs veh, RWDD3 / RFU, BCAT1 / Fold change vs veh, BCAT1 / RFU, EDEM3 / Fold change vs veh, EDEM3 / RFU, TMEM33 / Fold change vs veh, TMEM33 / RFU, WDR75 / Fold change vs veh, WDR75 / RFU, AHCTF1 / Fold change vs veh, AHCTF1 / RFU, TFRC / Fold change vs veh, TFRC / RFU, ZDHHC17 / Fold change vs veh, ZDHHC17 / RFU, NOM1 / Fold change vs veh, NOM1 / RFU, ARL8B / Fold change vs veh, ARL8B / RFU, ZBTB11 / Fold change vs veh, ZBTB11 / RFU, TAMM41 / Fold change vs veh, TAMM41 / RFU, KIAA1704 /// LOC100996395 / Fold change vs veh, KIAA1704 /// LOC100996395 / RFU, ING1 / Fold change vs veh, ING1 / RFU, TRMT61B / Fold change vs veh, TRMT61B / RFU, FUBP3 / Fold change vs veh, FUBP3 / RFU, TP53 / Fold change vs veh, TP53 / RFU, TNKS2 / Fold change vs veh, TNKS2 / RFU, ZFP14 / Fold change vs veh, ZFP14 / RFU, ACTR2 / Fold change vs veh, ACTR2 / RFU, PPP3R1 / Fold change vs veh, PPP3R1 / RFU, PIK3R1 / Fold change vs veh, PIK3R1 / RFU, HNRNPA1 / Fold change vs veh, HNRNPA1 / RFU, RNF170 / Fold change vs veh, RNF170 / RFU, ZNF28 / Fold change vs veh, ZNF28 / RFU, RNGTT / Fold change vs veh, RNGTT / RFU, OGT / Fold change vs veh, OGT / RFU, BRD1 / Fold change vs veh, BRD1 / RFU, MARS / Fold change vs veh, MARS / RFU, ZNF655 / Fold change vs veh, ZNF655 / RFU, FAHD1 / Fold change vs veh, FAHD1 / RFU, BDP1 / Fold change vs veh, BDP1 / RFU, LRRCC1 / Fold change vs veh, LRRCC1 / RFU, ARID1A / Fold change vs veh, ARID1A / RFU, ZNF146 / Fold change vs veh, ZNF146 / RFU, ZNF330 / Fold change vs veh, ZNF330 / RFU, GPN3 / Fold change vs veh, GPN3 / RFU, C9orf123 / Fold change vs veh, C9orf123 / RFU, N4BP2L2 / Fold change vs veh, N4BP2L2 / RFU, ARFIP1 / Fold change vs veh, ARFIP1 / RFU, FAM179B / Fold change vs veh, FAM179B / RFU, BCL10 / Fold change vs veh, BCL10 / RFU, UHRF1BP1L / Fold change vs veh, UHRF1BP1L / RFU, BET1 / Fold change vs veh, BET1 / RFU, CNOT2 / Fold change vs veh, CNOT2 / RFU, ZNF268 / Fold change vs veh, ZNF268 / Fold change vs veh, ZNF507 / RFU, DGCR2 / Fold change vs veh, DGCR2 / RFU, WDSUB1 / Fold change vs veh, WDSUB1 / Fold change vs veh, HSP90B1 /// MIR3652 / RFU, ADSS / Fold change vs veh, ADSS / RFU, GK / Fold change vs veh, GK / RFU, ZNF148 / Fold change vs veh, ZNF148 / RFU, TAF9 / Fold change vs veh, TAF9 / RFU, SLC1A5 / Fold change vs veh, SLC1A5 / RFU, SLMO2 / Fold change vs veh, SLMO2 / RFU, ABCC4 / Fold change vs veh, ABCC4 / RFU, LOC101060439 /// RAP1B / Fold change vs veh, LOC101060439 /// RAP1B / RFU, RFX7 / Fold change vs veh, RFX7 / RFU, GTPBP10 / Fold change vs veh, GTPBP10 / RFU, CNEP1R1 / Fold change vs veh, CNEP1R1 / RFU, BIVM-ERCC5 /// ERCC5 / Fold change vs veh, BIVM-ERCC5 /// ERCC5 / RFU, ILF3 / Fold change vs veh, ILF3 / RFU 11762660_at / Fold change /veh 11762660_at / RFU VCAN (11757783_s_at) / Fold change /veh VCAN (11757783_s_at) / RFU DDX43 (11728927_at) / Fold change /veh DDX43 (11728927_at) / RFU KRT8 (11758188_x_at) / Fold change /veh KRT8 (11758188_x_at) / RFU NKD1 (11759106_at) / Fold change /veh NKD1 (11759106_at) / RFU SRD5A1 (11742802_a_at) / Fold change /veh SRD5A1 (11742802_a_at) / RFU TPSAB1 /// TPSB2 (11721975_s_at) / Fold change /veh TPSAB1 /// TPSB2 (11721975_s_at) / RFU GSTM3 (11746129_a_at) / Fold change /veh GSTM3 (11746129_a_at) / RFU IL23R (11737362_x_at) / Fold change /veh IL23R (11737362_x_at) / RFU TMEM51 (11727254_a_at) / Fold change /veh TMEM51 (11727254_a_at) / RFU PIWIL2 (11732686_x_at) / Fold change /veh PIWIL2 (11732686_x_at) / RFU ORM1 (11744905_x_at) / Fold change /veh ORM1 (11744905_x_at) / RFU CCDC152 (11743942_at) / Fold change /veh CCDC152 (11743942_at) / RFU ECM1 (11717891_a_at) / Fold change /veh ECM1 (11717891_a_at) / RFU IL23R (11748794_a_at) / Fold change /veh IL23R (11748794_a_at) / RFU TNFAIP8L3 (11732012_x_at) / Fold change /veh TNFAIP8L3 (11732012_x_at) / RFU MBOAT4 (11741988_at) / Fold change /veh MBOAT4 (11741988_at) / RFU 11764193_at / Fold change /veh 11764193_at / RFU TMEM53 (11763286_at) / Fold change /veh TMEM53 (11763286_at) / RFU MAGEB2 (11727129_at) / Fold change /veh MAGEB2 (11727129_at) / RFU TMEM200A (11744735_a_at) / Fold change /veh TMEM200A (11744735_a_at) / RFU CCDC152 (11751479_a_at) / Fold change /veh CCDC152 (11751479_a_at) / RFU FAM211A (11726209_a_at) / Fold change /veh FAM211A (11726209_a_at) / RFU RGS16 (11746705_a_at) / Fold change /veh RGS16 (11746705_a_at) / RFU VCAN (11755009_s_at) / Fold change /veh VCAN (11755009_s_at) / RFU RHOB (11743442_s_at) / Fold change /veh RHOB (11743442_s_at) / RFU RGS16 (11720943_a_at) / Fold change /veh RGS16 (11720943_a_at) / RFU RGS16 (11720944_at) / Fold change /veh RGS16 (11720944_at) / RFU, VPS4B / Fold change vs veh, VPS4B / RFU, CREB1 / Fold change vs veh, CREB1 / RFU, DNAJC13 / Fold change vs veh, DNAJC13 / RFU, GNAQ / Fold change vs veh, GNAQ / RFU, CDK5R1 / Fold change vs veh, CDK5R1 / RFU, ZRANB3 / Fold change vs veh, ZRANB3 / RFU, CUL4A / Fold change vs veh, CUL4A / RFU, CCNY / Fold change vs veh, CCNY / RFU, UFL1 / Fold change vs veh, UFL1 / RFU, COG3 / Fold change vs veh, COG3 / RFU, DIAPH2 / Fold change vs veh, DIAPH2 / RFU, SKA2 / Fold change vs veh, SKA2 / RFU, AFF3 / Fold change vs veh, AFF3 / RFU, LMF1 / Fold change vs veh, LMF1 / RFU, IPO11 / Fold change vs veh, IPO11 / RFU, DFFB / Fold change vs veh, DFFB / RFU, FOXP1 / Fold change vs veh, FOXP1 / RFU, CARD8 / Fold change vs veh, CARD8 / RFU, STRN3 / Fold change vs veh, STRN3 / RFU, ADK / Fold change vs veh, ADK / RFU, RASSF2 / Fold change vs veh, RASSF2 / RFU, WIPF1 / Fold change vs veh, WIPF1 / RFU, LARP1B / Fold change vs veh, LARP1B / RFU, RASA1 / Fold change vs veh, RASA1 / RFU, RB1 / Fold change vs veh, RB1 / RFU, PPFIA1 / Fold change vs veh, PPFIA1 / RFU, MAT2A / Fold change vs veh, MAT2A / RFU, CCT5 / Fold change vs veh, CCT5 / RFU, WDR92 / Fold change vs veh, WDR92 / RFU, CUX1 / Fold change vs veh, CUX1 / RFU, TTC7A / Fold change vs veh, TTC7A / RFU, TMEM135 / Fold change vs veh, TMEM135 / RFU, DEPTOR / Fold change vs veh, DEPTOR / RFU, CPM / Fold change vs veh, CPM / RFU, DNAJB6 / Fold change vs veh, DNAJB6 / RFU, CACNA2D3 / Fold change vs veh, CACNA2D3 / RFU, DTX4 / Fold change vs veh, DTX4 / RFU, TFCP2 / Fold change vs veh, TFCP2 / RFU, GMCL1 /// GMCL1P1 / Fold change vs veh, GMCL1 /// GMCL1P1 / RFU, AEBP2 / Fold change vs veh, AEBP2 / RFU, SNHG1 /// SNORD22 /// SNORD25 /// SNORD26 /// SNORD27 /// SNORD28 /// SNORD29 /// SNORD31 / Fold change vs veh, SNHG1 /// SNORD22 /// SNORD25 /// SNORD26 /// SNORD27 /// SNORD28 /// SNORD29 /// SNORD31 / Fold change (Aza/veh), C12orf56 (ProbeSet 11735607_a_at) / Fold change (ACY-1035/veh), C12orf56 (ProbeSet 11735607_a_at) / Fold change (Aza/veh), FGFR1OP (ProbeSet 11751329_s_at) / Fold change (ACY-1035/veh), FGFR1OP (ProbeSet 11751329_s_at) / Fold change (Aza/veh), VPS36 (ProbeSet 11739960_a_at) / Fold change (ACY-1035/veh), VPS36 (ProbeSet 11739960_a_at) / RFU SYPL1 (11715823_x_at) / Fold change /veh SYPL1 (11715823_x_at) / RFU IGFBP7 (11715501_s_at) / Fold change /veh IGFBP7 (11715501_s_at) / RFU REEP3 (11722064_at) / Fold change /veh REEP3 (11722064_at) / RFU IGLL1 (11728026_x_at) / Fold change /veh IGLL1 (11728026_x_at): dose or concentration left out as unconfirmed
Settings: ProbeSet 11754607_s_at; LIST B

Nc1ncn([C@@H]2O[C@H](CO)[C@@H](O)[C@H]2O)c(=O)n1 [azacitidine]
Fold change vs veh, HSP90B1 /// MIR3652: 0.90
